According to US20070128217A1 (priority 2003, published 2007):

What was measured:
[1] = system: control sera (pooled serum of ten healthy LUMC hospital workers; commercial negative donor pooled serum from the Dutch bloodbank); format: binding, human; set-up: Binding of Control serum LUMC to linear peptides / Binding of Control serum Blood-bank to linear peptides / Binding of Control serum LUMC to looped peptides / Binding of Control Serum Blood-Bank to Looped peptides / Binding of Control serum LUMC to linear peptides of the protein M of SARS-CoV Urbani / Binding of Control serum Blood-bank to linear peptides of the protein M of SARS-CoV Urbani / Binding of Control serum LUMC to looped peptides of the protein M of SARS-CoV Urbani / Binding of Control Serum Blood-Bank to Looped peptides of the protein M of SARS-CoV Urbani: unit not given here
[2] = system: rabbit serum obtained by immunizing a rabbit with the SARS-CoV strain Frankfurt 1; format: binding; set-up: Binding of a rabbit serum to linear peptides / Binding of a rabbit serum to looped peptides / Rabbit serum linear peptides / Rabbit serum looped peptides / Binding of a rabbit serum to linear peptides of protein N of SARS-CoV Urbani (Rabbit serum linear peptides) / Binding of a rabbit serum to looped/cyclic peptides of protein N of SARS-CoV Urbani (Rabbit serum looped peptides): unit not given here
[3] = system: recombinant human anti-SARS-CoV antibody 03-018; format: binding; set-up: Binding of antibody 03-018 to linear peptides of the N protein of SARS-CoV Urbani / Binding of antibody 03-018 to looped/cyclic peptides of the N protein of SARS-CoV Urbani: unit not given here

## PQGTTLPKGFYAEGS
[1]
  Binding of Control Serum Blood-Bank to Looped peptides: 0.6
  Binding of Control serum Blood-bank to linear peptides: 0.7
  Binding of Control serum LUMC to linear peptides: 0.6
  Binding of Control serum LUMC to looped peptides: 0.6
[2]
  Binding of a rabbit serum to linear peptides of protein N of SARS-CoV Urbani (Rabbit serum linear peptides): 0.1
  Binding of a rabbit serum to looped/cyclic peptides of protein N of SARS-CoV Urbani (Rabbit serum looped peptides): 0.5
[3]
  Binding of antibody 03-018 to linear peptides of the N protein of SARS-CoV Urbani: 0.1
  Binding of antibody 03-018 to looped/cyclic peptides of the N protein of SARS-CoV Urbani: 0.2

## RMASGGGETALALLL
[1]
  Binding of Control Serum Blood-Bank to Looped peptides: 0.8
  Binding of Control serum Blood-bank to linear peptides: 0.6
  Binding of Control serum LUMC to linear peptides: 0.5
  Binding of Control serum LUMC to looped peptides: 0.8
[2]
  Binding of a rabbit serum to linear peptides of protein N of SARS-CoV Urbani (Rabbit serum linear peptides): 0.2
  Binding of a rabbit serum to looped/cyclic peptides of protein N of SARS-CoV Urbani (Rabbit serum looped peptides): 0.4
[3]
  Binding of antibody 03-018 to linear peptides of the N protein of SARS-CoV Urbani: 0.1
  Binding of antibody 03-018 to looped/cyclic peptides of the N protein of SARS-CoV Urbani: 0.3

## MASGGGETALALLLL
[1]
  Binding of Control Serum Blood-Bank to Looped peptides: 0.7
  Binding of Control serum Blood-bank to linear peptides: 0.7
  Binding of Control serum LUMC to linear peptides: 0.6
  Binding of Control serum LUMC to looped peptides: 0.9
[2]
  Binding of a rabbit serum to linear peptides of protein N of SARS-CoV Urbani (Rabbit serum linear peptides): 0.2
  Binding of a rabbit serum to looped/cyclic peptides of protein N of SARS-CoV Urbani (Rabbit serum looped peptides): 1.1
[3]
  Binding of antibody 03-018 to linear peptides of the N protein of SARS-CoV Urbani: 0.1
  Binding of antibody 03-018 to looped/cyclic peptides of the N protein of SARS-CoV Urbani: 0.3

## KRTATKQYNVTQAFG
[1]
  Binding of Control Serum Blood-Bank to Looped peptides: 0.6
  Binding of Control serum Blood-bank to linear peptides: 0.7
  Binding of Control serum LUMC to linear peptides: 0.8
  Binding of Control serum LUMC to looped peptides: 0.6
[2]
  Recognition of the peptide by the rabbit serum: recognized
[3]
  Binding of antibody 03-018 to linear peptides of the N protein of SARS-CoV Urbani: 0.1
  Binding of antibody 03-018 to looped/cyclic peptides of the N protein of SARS-CoV Urbani: 0.2

## TTLPKGFYAEGSRGG
[1]
  Binding of Control Serum Blood-Bank to Looped peptides: 0.6
  Binding of Control serum Blood-bank to linear peptides: 0.6
  Binding of Control serum LUMC to linear peptides: 0.7
  Binding of Control serum LUMC to looped peptides: 0.5
[2]
  Binding of a rabbit serum to linear peptides of protein N of SARS-CoV Urbani (Rabbit serum linear peptides): 0.2
  Binding of a rabbit serum to looped/cyclic peptides of protein N of SARS-CoV Urbani (Rabbit serum looped peptides): 0.4
[3]
  Binding of antibody 03-018 to linear peptides of the N protein of SARS-CoV Urbani: 0.1
  Binding of antibody 03-018 to looped/cyclic peptides of the N protein of SARS-CoV Urbani: 0.2
